Reference: US6583154B1, “Compounds and methods which modulate feeding behavior and related diseases” (Amgen Inc., priority 1998, dated 2003)
Counter-ions that a name gives are not always drawn.

How the values were obtained:
Long-Evans male rats [1] = test: Icv administration of compounds in food-deprived Long-Evans male rats, food intake; type: in vivo; details: Long-Evans male rats food deprived for 16 hours; I.C.V. injection in DMSO, 20 μl; 4 hours post-injection; vehicle 8.69 ± 0.53; * significantly different from vehicle, p < 0.05
Protocol: Protocol for Icv Administration of Compounds in Food-Deprived Long-Evans Male Rats
(§1) Adult male Long-Evans rats (approx. 275 g) were obtained from Charles River Laboratories (Wilmington, MA) and given one week to acclimate to the animal facility. Animals were housed individually and given ad-lib access to food and water. After acclimation, animals were anesthetized (75 mg/kg Sodium Nembutal) and implanted with 23 g cannulas (Plastics One, Roanoke, VA) into the right lateral cerebral ventricle. All animals were given at least 1 week post-operative recover before any experiment.
Animals were food deprived for 16 hours prior to injections. Intracerebroventricular injection of compounds was done in awake, unrestrained animals in a DMSO vehicle in a volume of 20 μl. Immediately following the injection, the animals were returned to their home cage and were provided with a pre-weighed portion of regular rat chow pellets. Total food consumed was measured at 2 and 4 hours post-injection.

pNPY induced feeding = test: Icv administration of NPY antagonists against pNPY induced feeding in satiated Long-Evans male rats; type: in vivo; details: I.C.V. antagonist in DMSO 20 μl, about 15 min later 5 μl pNPY, high sucrose mash, 4 hours post-injection, vehicle 5.29 ± 0.97, * significantly different from vehicle, p < 0.05
Protocol: Protocol for Icv Administration of NPY Antagonists Against pNPY Induced Feeding in Satiated Long-Evans Male Rats
as §1
Approximately 16 hours prior to injection, animals were provided with access to 30 grams of a sucrose/condensed milk/rat chow mash along with their regular chow. Ninety minutes prior to injections, regular chow was removed from the cages and animals were provided with a fresh portion of the high sucrose mash. Intracerebroventricular injection of antagonist or vehicle was done in awake, unrestrained animals in a DMSO vehicle in a volume of 20 μl. Approximately 15 minutes after the administration of the antagonist or vehicle, animals were given a second 5 μl injection of either water or pNPY. After the second injection, the portion of high sucrose mash was weighed and total food consumed was measured at 2 and 4 hours post-injection.

OB/OB female mice = test: Icv administration of compounds in ad-lib fed OB/OB female mice, food intake; type: in vivo; details: I.C.V. injection in 100% DMSO, 5 μl, 4 hours post-injection, vehicle 0.61 ± 0.10, * significantly different from vehicle, p < 0.05
Description: Protocol For Icv Administration of Compounds In Ad-Lib Fed OB/OB Female Mice.
Eight week old (approx. 50 g) OB/OB female mice were obtained from Jackson Laboratories (Bar Harbor, ME) and given one week to acclimate to the animal facility before the experiment. Animals were housed 10 per cage and were provided with food and water ad-lib. Immediately prior to injection, animals were removed from group housing and lightly anesthetized using 4% isofluorane vapor. Freehand intracerebroventricular (“icv”) injection of compounds was done in a 100% DMSO vehicle in a volume of 5 μl. Immediately following the injection, animals were placed in individual cages and were provided with a pre-weighed portion of regular chow pellets. Total amount of food consumed was measured at 1, 2, 4 and 24 hours post-injection.

Male BALB-C mice = test: IP administration of compounds in fasted male BALB-C mice, 2 hr food intake; type: in vivo; details: Mus musculus; male BALB-C mice fasted 18-20 hr; 30 mg/kg (ip) in 2% tween; food given after 30 min, weighed 2 hr later; vs vehicle; read-out: inhibition of feeding (2 hr food intake)
Description: Protocol For IP Administration Of Compounds In Male BALB-C Mice.
Male BALB-C mice (20-25 g)were obtained from Charles Rivers (Wilmington, Mass.) and were given at least a one week acclimation period to Amgen's animal care facilities. Animals were housed 10/cage and were provided ad libitum food and water. For testing, mice were fasted for 18-20 hr (overnight) prior to the start of the experiment. On the day of the experiment, mice were removed from group housing and placed into individual cages (without food). Test compounds or vehicle was then administered via the intraperitoneal (i.p.) route of administration. Test compounds were suspended in a 2% tween solution; the 2% tween solution was used as the vehicle treatment (control group). Group sizes for each treatment were 6-8 animals. After 30 min, premeasured food was placed into the cages. Two hours later, the food was weighed again. The difference between 2 hr weight and the premeasured weight was taken as 2 hr food intake.

Long-Evans male rats [2] = test: IP administration of compounds in fasted Long-Evans male rats, 2 hr food intake; type: in vivo; details: Rattus norvegicus; male Long Evans rats fasted 18-20 hr; 30 mg/kg (ip) in 2% tween; food given after 30 min, weighed 2 hr later; vs vehicle; read-out: inhibition of feeding (2 hr food intake)
Protocol: Protocol for IP Administration of Compounds in Fasted Long-Evans Male Rats
Male Long Evans rats (85-100 g)were obtained from Harlan (Indianapolis, Ind.) and were given at least a one week acclimation period to Ambients animal care facilities. Animals were individually housed and were provided ad libitum food and water. For testing, rats were fasted for 18-20 hr (overnight) prior to the start of the experiment. On the test day, test compounds or vehicle was administered via the intraperitoneal (i.p.) route of administration. Test compounds were suspended in a 2% tween solution; the 2% tween solution was used as the vehicle treatment (control group). Group sizes for each treatment were 6-8 animals. After 30 min, premeasured food was placed into the cages. Two hours later, the food was weighed again. The difference between 2 hr weight and the premeasured weight was taken as 2 hr food intake.

| SMILES | 4 hr food intake (g ± S.E.M.) (Long-Evans male rats [1]) | melting point | 4 hr food intake (g ± S.E.M.) (pNPY induced feeding) | 4 hr food intake (g ± S.E.M.) (OB/OB female mice) | inhibition in vivo at 30 mg/kg (Male BALB-C mice) [%] | inhibition in vivo at 30 mg/kg (Long-Evans male rats [2]) [%] |
| --- | --- | --- | --- | --- | --- | --- |
| CCN(CC)c1nc(C)nc2cc(-c3ccccc3)[nH]c12 [Example 1f, Diethyl(2-methyl-6-phenylpyrrolo[2,3-e]pyrimidin-4-yl)amine] | 5.13 ± 1.40* g | 184 to 185 °C |  |  |  |  |
| Cc1nc(N2CCc3ccccc3C2)c2[nH]c(-c3ccccc3)cc2n1 [Example 2] |  | 251 to 253 °C (dec.) | 3.35 ± 0.62* g |  |  |  |
| Cc1nc(N2CCCCC2)c2[nH]c(-c3ccccc3)cc2n1 [Example 35, 2-methyl-6-phenyl-4-(piperidinyl)pyrrolo[3,2-d]pyrimidine] |  |  |  | 0.29 ± 0.11* g | ≥ 10 | ≥ 10 |
| Cl.c1ccc(-c2cc3nc(C4CC4)nc(N4CCCCC4)c3[nH]2)cc1 [Example 69c, 2-Cyclopropyl-6-phenyl-4-piperidylpyrrolo[3,2-d]pyrimidine Hydrochloride] |  | 285.4 to 286 °C (dec.) |  |  | ≥ 10 | ≥ 10 |
| Cc1nc(N2CCCCC2)c2[nH]c(-c3cccs3)cc2n1.Cl [Example 76c, 2-(2-Methyl-4-piperidylpyrrolo[4,5-d]pyrimidin-6-yl)thiophene Hydrochloride] |  | > 280 °C |  |  | ≥ 10 | ≥ 10 |
| CCc1nc(N2CCCCC2)c2oc(-c3ccc(Cl)cc3)cc2n1 [Example 96, 6-(4-Chlorophenyl)-2-ethyl-4-piperidinylfurano[3,2-d]pyrimidine] |  | > 288 °C |  |  | ≥ 10 | ≥ 10 |
| Cc1nc(N2CCCCC2)c2[nH]c(-c3cc(C(F)(F)F)cc(C(F)(F)F)c3)cc2n1.Cl [Example 122, 6-((3,5-bis(Trifluoromethyl)phenyl)-2-methyl-4-piperidylpyrrolo[3,2-d]pyrimidine Hydrochloride] |  |  |  |  | ≥ 10 | ≥ 10 |
| Cc1nc(N2CCCCC2)c2[nH]c(-c3ccc(SC(F)(F)F)cc3)cc2n1 [Example 123, Trifluoro[4-(2-methyl-4-piperidylpyrrolo[4,5-d]pyrimidin-6-yl)phenylthio]methane Hydrochloride Monohydrate] |  |  |  |  | ≥ 10 | ≥ 10 |
| Cc1nc(N2CCCCC2)c2[nH]c(-c3ccc(C)c(C)c3)cc2n1 [Example 124, 6-(3,4-Dimethylphenyl)-2-methyl-4-piperidylpyrrolo[3,2-d]pyrimidine Hydrochloride Hydrate] |  |  |  |  | ≥ 10 | ≥ 10 |
| Cc1nc(NC[C@H]2CC[C@H](CNS(=O)(=O)c3cccc4ccccc34)CC2)c2[nH]c(-c3ccccc3)cc2n1 [Example 194, trans-[(4-{[(2-Methyl-6-phenylpyrrolo[2,3-e]pyrimidin-4-yl)amino]methyl}cyclohexyl)methyl](naphthylsulfonyl)amine Hydrochloride Hydrate] |  |  |  |  | ≥ 10 | ≥ 10 |
| Cc1nc(N2CCCCC2)c2[nH]c(-c3ccc(OC(F)(F)F)cc3)cc2n1 [Example 195d, Trifluoro[4-(2-methyl-4-piperidylpyrrolo[4,5-d]pyrimidin-6-yl)phenoxylmethane Hydrochloride Monohydrate] |  |  |  |  | ≥ 10 | ≥ 10 |
| CCCc1nc(N2CCCCC2)c2[nH]c(-c3ccccc3)cc2n1 [Example 196c, 6-Phenyl-4-piperidyl-2-propylpyrrolo[3,2-d]pyrimidine Hydrochloride Monohydrate] |  |  |  |  | ≥ 10 | ≥ 10 |
| Cc1nc(N2CC=CC2)c2[nH]c(-c3cccc(C(F)(F)F)c3)cc2n1 [Example 197d, 2-Methyl-4-(3-pyrrolinyl)-6-[3-(trifluoromethyl)phenyl]pyrrolo[3,2-d]pyrimidine Hydrochloride Monohydrate] |  |  |  |  | ≥ 10 | ≥ 10 |
| Cc1nc(N2CC=CC2)c2[nH]c(-c3cccc(Cl)c3)cc2n1 [Example 198, 6-(3-Chlorophenyl)-2-methyl-4-(3-pyrrolinyl)pyrrolo[3,2-d]pyrimidine Hydrochloride Hydrate] |  |  |  |  | ≥ 10 | ≥ 10 |
| Cc1nc(N2CCCCC2)c2sc(-c3ccc(F)cc3)cc2n1 [Example 217, 6-(4-Fluorophenyl)-2-methyl-4-piperidylthiopheno[3,2-d]pyrimidine Hydrochloride Hydrate] |  |  |  |  | ≥ 10 | ≥ 10 |
